Reference: patent US7713994B2 (Wyeth LLC, priority 2005, dated 2010)

Key:
cyclin D1/cdk 4 enzyme = target: T1, cyclin D1/cdk 4 enzyme (Homo sapiens, UniProt P11802); assay: CDK4 ELISA kinase assay (phospho-Rb ser 795 detection); assay type: biochemical; conditions: In Vitro Enzyme Assays, 200 μM ATP, read-out: CDK4 IC50
T1 construct: made in house; host or cells: Sf9 insect cells, recombinant baculovirus
Procedure, shortened: (§1)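 GST-Rb C-terminal fragment coated on plates; partially purified Sf9-expressed cyclin D1/CDK4, cyclin E/CDK2 or cyclin B/CDK1 with 200 μM ATP, pH 7.5 HEPES/MgCl2 buffer, 1 h at 30 °C; screen compound final 10 μg/ml. Phospho-Rb Ser795 detected by antibody ELISA (TMB, A450); % of control, IC50 from background-subtracted inhibition curves.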

cyclin B/CDK1 enzyme = target: T2, cyclin B/CDK1 enzyme (Homo sapiens, UniProt P06493); assay: CDK1 ELISA kinase assay (phospho-Rb ser 795 detection); assay type: biochemical; conditions: In Vitro Enzyme Assays, read-out: CDK1 IC50
T2 construct: purchased New England BioLabs; host or cells: Sf9 insect cells, recombinant baculovirus
T2 sequence (P06493 whole entry): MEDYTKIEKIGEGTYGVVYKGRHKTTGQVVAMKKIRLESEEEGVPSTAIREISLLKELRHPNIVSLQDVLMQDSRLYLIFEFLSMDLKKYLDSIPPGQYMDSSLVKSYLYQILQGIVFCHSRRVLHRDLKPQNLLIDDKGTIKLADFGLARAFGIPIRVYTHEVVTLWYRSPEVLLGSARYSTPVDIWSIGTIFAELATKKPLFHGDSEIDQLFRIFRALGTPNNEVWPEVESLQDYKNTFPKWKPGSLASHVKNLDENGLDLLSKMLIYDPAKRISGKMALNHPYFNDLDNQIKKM
T2 sequence (P14635 whole entry partner): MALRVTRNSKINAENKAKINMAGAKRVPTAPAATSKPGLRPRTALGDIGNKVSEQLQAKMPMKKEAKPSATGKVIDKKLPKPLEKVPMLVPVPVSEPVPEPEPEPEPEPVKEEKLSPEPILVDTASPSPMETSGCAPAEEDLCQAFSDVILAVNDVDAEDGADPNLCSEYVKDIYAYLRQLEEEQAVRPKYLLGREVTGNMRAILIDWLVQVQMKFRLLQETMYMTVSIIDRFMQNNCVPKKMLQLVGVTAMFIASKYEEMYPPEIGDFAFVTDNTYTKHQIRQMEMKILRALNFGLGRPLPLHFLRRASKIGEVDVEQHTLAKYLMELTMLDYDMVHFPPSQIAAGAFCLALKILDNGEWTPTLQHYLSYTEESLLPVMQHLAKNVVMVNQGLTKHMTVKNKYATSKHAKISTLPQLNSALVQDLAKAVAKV
Procedure, shortened: as §1

BT474 = assay: Cytotoxicity assay (SRB), BT474; assay type: cell-based; conditions: Homo sapiens, BT-474, 144 h, BT474 cells, 6 days, SRB; read-out: In Vitro Cellular Activity IC50 BT474
Procedure, shortened: (§2)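 Cells seeded overnight at 37 °C, 7% CO2 (BT474 12000, HCT-116 4000, LoVo and MCF-7 6000 cells/well) in RPMI 1640 with 5% FBS, then exposed to compound dilutions for 3 days (BT474 6 days). Survival versus untreated controls by TCA fixation and SRB staining, absorbance 540 nm.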

HCT-116 = assay: Cytotoxicity assay (SRB), HCT-116; assay type: cell-based; conditions: Homo sapiens, HCT-116, 72 h, HCT116 cells, 3 days, SRB; read-out: In Vitro Cellular Activity IC50 HCT116
Procedure, shortened: as §2

cyclin E/CDK2 enzyme = target: T3, cyclin E/CDK2 enzyme (Homo sapiens, UniProt P24941); assay: CDK2 ELISA kinase assay (phospho-Rb ser 795 detection); assay type: biochemical; conditions: In Vitro Enzyme Assays, read-out: CDK2 IC50
T3 construct: made in house; host or cells: Sf9 insect cells, recombinant baculovirus
Procedure, shortened: as §1

LoVo = assay: Cytotoxicity assay (SRB), LoVo; assay type: cell-based; conditions: Homo sapiens, LoVo, 72 h, LoVo cells, 3 days, SRB; read-out: In Vitro Cellular Activity IC50 LOVO
Procedure, shortened: as §2

MCF-7 = assay: Cytotoxicity assay (SRB), MCF-7; assay type: cell-based; conditions: Homo sapiens, MCF7, 72 h, MCF-7 cells, 3 days, SRB; read-out: In Vitro Cellular Activity IC50 MCF-7
Procedure, shortened: as §2

T1 sequence (P11802 whole entry, species assumed): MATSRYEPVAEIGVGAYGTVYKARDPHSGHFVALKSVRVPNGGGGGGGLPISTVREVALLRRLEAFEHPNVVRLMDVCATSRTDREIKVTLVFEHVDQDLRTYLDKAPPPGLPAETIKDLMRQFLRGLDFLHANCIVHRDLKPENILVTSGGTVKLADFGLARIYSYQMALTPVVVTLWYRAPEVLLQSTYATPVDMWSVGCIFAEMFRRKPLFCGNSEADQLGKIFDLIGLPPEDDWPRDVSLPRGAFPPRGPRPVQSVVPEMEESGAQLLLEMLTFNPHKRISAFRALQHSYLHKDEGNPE
T1 sequence (P24385 whole entry partner, species assumed): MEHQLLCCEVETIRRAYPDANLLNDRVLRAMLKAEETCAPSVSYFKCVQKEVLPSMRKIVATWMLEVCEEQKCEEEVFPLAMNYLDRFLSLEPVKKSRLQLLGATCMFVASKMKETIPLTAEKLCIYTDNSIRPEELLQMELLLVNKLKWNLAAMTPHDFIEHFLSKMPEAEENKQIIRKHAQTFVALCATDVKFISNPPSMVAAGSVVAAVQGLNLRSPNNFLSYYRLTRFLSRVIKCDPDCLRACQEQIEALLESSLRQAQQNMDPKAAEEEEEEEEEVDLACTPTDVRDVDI

IC50 (cyclin D1/cdk 4 enzyme)	IC50 (cyclin B/CDK1 enzyme)	IC50 (cyclin E/CDK2 enzyme)	SMILES	IC50 (BT474)	IC50 (HCT-116)	IC50 (LoVo)	IC50 (MCF-7)
1.5 µM	> 50 µM	> 50 µM	O=C1NC(=O)c2ccc(I)cc2/C1=C/Nc1ccc(N2CCN(CC3CC3)CC2)nc1 [Example 415, (4Z)-4-[({6-[4-(Cyclopropylmethyl)piperazin-1-yl]pyridin-3-yl}amino)methylene]-6-iodoisoquinoline-1,3(2H,4H)-dione]	2.9 µM	1.2 µM	2 µM	3.6 µM
0.13 µM	> 50 µM	> 50 µM	CCN1CCN(c2ccc(N/C=C3\C(=O)NC(=O)c4ccc(-c5ccoc5)cc43)cn2)CC1 [Example 416, (4Z)-4-({[6-(4-Ethylpiperazin-1-yl)pyridin-3-yl]amino}methylene)-6-(3-furyl)isoquinoline-1,3(2H,4H)-dione]	2.5 µM	2.7 µM	3.1 µM	6.2 µM
0.03 µM	> 50 µM	> 50 µM	CC(C)N1CCN(c2ccc(N/C=C3\C(=O)NC(=O)c4ccc(-c5ccsc5)cc43)cn2)CC1 [Example 417, (4Z)-4-({[6-(4-Isopropylpiperazin-1-yl)pyridin-3-yl]amino}methylene)-6-(3-thienyl)isoquinoline-1,3(2H,4H)-dione]	2.8 µM	1.3 µM	3.1 µM	3.2 µM
0.02 µM	> 50 µM	> 50 µM	O=C1NC(=O)c2ccc(-c3ccsc3)cc2/C1=C/Nc1ccc(N2CCN(CC3CC3)CC2)nc1 [Example 418, (4Z)-4-[({6-[4-(Cyclopropylmethyl)piperazin-1-yl]pyridin-3-yl}amino)methylene]-6-(3-thienyl)isoquinoline-1,3(2H,4H)-dione]	2.7 µM	1.4 µM	2.4 µM	3.2 µM
0.77 µM	> 50 µM	31 µM	C=CCN1CCCC1c1ccc(N/C=C2\C(=O)NC(=O)c3ccc(I)cc32)cc1 (stereo not drawn) [Example 419, 4-{[4-(1-Allyl-pyrrolidin-2-yl)-phenylamino]-methylene}-6-iodo-4H-isoquinoline-1,3-dione]	12.9 µM	7 µM	12 µM	7.6 µM

Further lines, the compound ahead of its results:

SMILES	IC50 (cyclin D1/cdk 4 enzyme)	IC50 (cyclin B/CDK1 enzyme)	IC50 (cyclin E/CDK2 enzyme)	IC50 (BT474)	IC50 (HCT-116)	IC50 (LoVo)	IC50 (MCF-7)
CCOC[C@@H]1CCCN1Cc1ccc(N/C=C2\C(=O)NC(=O)c3ccc(I)cc32)cc1 [Example 411, 4-{[4-(2-Ethoxymethyl-pyrrolidin-1-ylmethyl)-phenylamino]-methylene}-6-iodo-4H-isoquinoline-1,3-dione]	0.7 µM	> 50 µM	> 50 µM	0.45 µM	3.8 µM	3.5 µM	1.6 µM
CN(C)CC1CCCN1c1ccc(N/C=C2\C(=O)NC(=O)c3ccc(I)cc32)cc1F (stereo not drawn) [Example 412, 4-{[4-(2-Dimethylaminomethyl-pyrrolidin-1-yl)-3-fluoro-phenylamino]-methylene}-6-iodo-4H-isoquinoline-1,3-dione]	3.3 µM	> 50 µM	> 50 µM	5.6 µM	1.8 µM	3.2 µM	4.3 µM
CC(C)N1CCN(c2ccc(N/C=C3\C(=O)NC(=O)c4ccc(I)cc43)cn2)CC1 [Example 413]	0.19 µM	> 50 µM	> 50 µM	5 µM	1.9 µM	3.3 µM	5.8 µM
CCN1CCN(c2ccc(N/C=C3\C(=O)NC(=O)c4ccc(I)cc43)cn2)CC1 [Example 414, (4Z)-4-({[6-(4-Ethylpiperazin-1-yl)pyridin-3-yl]amino}methylene)-6-iodoisoquinoline-1,3(2H,4H)-dione]	0.5 µM	> 50 µM	> 50 µM	6.2 µM	2.4 µM	6.2 µM	6 µM
